Test system: Penncross creeping bentgrass
Assay: Turf quality visual rating at high temperature treatment (Example 1)
Type: in vivo
Details: high temperature 35/30° C., biweekly foliar application
Excerpt: The following test methods were used to compare the effectiveness of a phthalocyanine composition according to the invention with known compositions. The following compositions were used in the experiments: Pigment Green 7 obtained from Sun Chemical Corporation as the water-dispersible product SUN T-64-1660 (containing 45 to 55 wt. % of Pigment Green 7) was used alone. A mixture of Pigment Green 7 and fosetyl-al was used as the commercially available product Chipco® Signature™ fungicide from Bayer Environmental Science, Montvale, N.J. The compound fosetyl-al was used as Chipco® Aliette® WDG fungicide available from Bayer Environmental Science, Montvale N.J.
Seeds of “Penncross” creeping bentgrass were sown in polyvinyl chloride (PVC) tubes (10 cm in diameter and 20 cm in length) filled with coarse sand. Plants were kept in a growth chamber for 90 days before treatment stated to allow root and canopy establishment. The daily temperature in the growth chamber was 20/16° C., the photosynthetic photon flux density was 400 μmol m−2 s−1, and the photoperiod was 12 hours/day. Turf was mowed twice weekly at 4 mm with scissors, irrigated every other day until there was free drainage from the bottom of tubes, and fertilized weekly with 40 ml full-strength Hoagland's nutrient solution (Hoagland and Arnon, 1950). Insecticide was applied to kill whitefly when necessary. […]

## Pigment Green 7
Plants with pretreatment (sprayed 4 weeks before heat)
  Turf quality (visual, scale 0 to 9): highest
Plants without pretreatment
  Turf quality (visual, scale 0 to 9): higher turf quality than applications of Signature fungicide, Aliette fungicide, and water
